Residues, ends and D or L forms follow the SMILES beside them.

Among the data in ChEMBL document CHEMBL1139145, “Inhibition of cancer cell adhesion by heterochiral Pro-containing RGD mimetics” (Bioorg Med Chem Lett, 2007) are IC50 values, retold here.

The target in the assay is Integrin alpha-V/beta-3 (Homo sapiens, UniProt P05106+P06756). As to the kind of experiment: Inhibition of integrin alpha-v-beta-3 receptor-mediated human SK-MEL-24 cell adhesion to fibronectin by fluorimetry. It counts as protein-complex assay.
Chain of Integrin alpha-V/beta-3 (P05106 27-788 limits assumed): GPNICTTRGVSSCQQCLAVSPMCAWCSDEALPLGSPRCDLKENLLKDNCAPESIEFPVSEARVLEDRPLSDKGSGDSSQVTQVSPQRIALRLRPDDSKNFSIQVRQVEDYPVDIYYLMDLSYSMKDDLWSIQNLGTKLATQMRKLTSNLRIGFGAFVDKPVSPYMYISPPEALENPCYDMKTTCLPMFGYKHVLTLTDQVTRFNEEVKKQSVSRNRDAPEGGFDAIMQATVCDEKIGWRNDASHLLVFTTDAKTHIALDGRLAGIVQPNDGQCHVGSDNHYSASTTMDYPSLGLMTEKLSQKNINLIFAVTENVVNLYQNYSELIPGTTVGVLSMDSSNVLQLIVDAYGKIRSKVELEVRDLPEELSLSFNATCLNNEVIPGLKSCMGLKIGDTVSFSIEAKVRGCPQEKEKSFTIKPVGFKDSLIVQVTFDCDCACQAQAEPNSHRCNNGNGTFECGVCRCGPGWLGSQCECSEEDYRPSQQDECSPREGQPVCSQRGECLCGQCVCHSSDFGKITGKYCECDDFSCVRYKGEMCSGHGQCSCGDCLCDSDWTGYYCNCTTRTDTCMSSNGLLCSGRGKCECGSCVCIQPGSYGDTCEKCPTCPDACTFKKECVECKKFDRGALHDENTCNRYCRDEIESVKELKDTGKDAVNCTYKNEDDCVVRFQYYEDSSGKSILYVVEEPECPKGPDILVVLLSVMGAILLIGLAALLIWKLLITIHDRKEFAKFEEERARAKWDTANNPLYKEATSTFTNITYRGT
Chain of Integrin alpha-V/beta-3 (P06756 31-889 limits assumed): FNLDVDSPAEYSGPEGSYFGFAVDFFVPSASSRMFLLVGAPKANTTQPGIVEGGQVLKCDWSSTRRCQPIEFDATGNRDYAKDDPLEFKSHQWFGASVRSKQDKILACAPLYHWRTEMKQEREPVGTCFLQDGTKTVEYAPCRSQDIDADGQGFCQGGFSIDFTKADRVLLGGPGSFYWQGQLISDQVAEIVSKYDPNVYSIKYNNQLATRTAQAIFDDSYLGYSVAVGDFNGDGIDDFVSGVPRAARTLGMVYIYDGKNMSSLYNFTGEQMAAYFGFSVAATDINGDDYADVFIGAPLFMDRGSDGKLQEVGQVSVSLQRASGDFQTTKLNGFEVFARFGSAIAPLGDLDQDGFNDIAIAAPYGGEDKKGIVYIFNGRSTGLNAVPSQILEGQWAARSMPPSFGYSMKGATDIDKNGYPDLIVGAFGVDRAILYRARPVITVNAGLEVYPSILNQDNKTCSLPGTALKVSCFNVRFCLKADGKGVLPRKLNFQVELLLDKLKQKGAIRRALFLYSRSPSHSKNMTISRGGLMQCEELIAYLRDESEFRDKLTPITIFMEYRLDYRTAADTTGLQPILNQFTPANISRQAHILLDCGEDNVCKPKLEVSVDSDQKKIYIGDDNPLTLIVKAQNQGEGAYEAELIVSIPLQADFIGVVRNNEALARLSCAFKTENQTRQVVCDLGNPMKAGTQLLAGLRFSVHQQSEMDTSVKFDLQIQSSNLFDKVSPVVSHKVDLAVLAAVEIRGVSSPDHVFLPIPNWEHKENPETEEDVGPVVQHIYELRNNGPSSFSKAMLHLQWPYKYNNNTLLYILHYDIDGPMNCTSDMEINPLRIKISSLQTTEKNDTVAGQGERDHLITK
Chain of Integrin alpha-V/beta-3 (P06756 891-1048 limits assumed): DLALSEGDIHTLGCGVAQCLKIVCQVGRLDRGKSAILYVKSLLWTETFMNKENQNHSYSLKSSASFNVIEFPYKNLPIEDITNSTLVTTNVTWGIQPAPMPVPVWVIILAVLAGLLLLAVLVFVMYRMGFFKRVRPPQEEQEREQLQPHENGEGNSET

By IC50 is commonly meant the midpoint of a concentration-inhibition curve. Read a low IC50 as higher potency. In turn, `N=C(N)NCCC(=O)N1CCC[C@@H]1C(=O)N[C@@H](CCC(=O)O)C(=O)NCc1ccccc1` had a concentration for half-maximal inhibition (IC50) of 35 nM. As to `N=C(N)NCCC(=O)N1CCC[C@@H]1C(=O)N[C@@H](CC(=O)O)C(=O)NCc1ccccc1`, the IC50 is more than 100000 nM. With `CC(=O)N[C@@H](CC(=O)O)C(=O)N[C@@H](CCCN=C(N)N)C(=O)NCC(=O)N[C@@H](CC(=O)O)C(=O)N[C@@H](CO)C(=O)O` (Ac-DRGDS-OH) the figure was 20 nM; with `NC(N)=NCCCCC(=O)N1CCC[C@@H]1C(=O)N[C@@H](CC(=O)O)C(=O)NCc1ccccc1`, 230000 nM; with `N=C(N)NCCCC(=O)N1CCC[C@@H]1C(=O)N[C@@H](CCC(=O)O)C(=O)NCc1ccccc1`, 2600 nM. As for `Cc1ccc(S(=O)(=O)N[C@@H](CCCNC(=N)N)C(=O)N2CCC[C@H]2C(=O)N[C@@H](CC(=O)O)C(=O)NCc2ccccc2)cc1`, the figure is 100000 nM; as for `Cc1ccc(S(=O)(=O)N[C@@H](CCCN=C(N)N)C(=O)N2CCC[C@@H]2C(=O)N[C@@H](CC(=O)O)C(=O)NCc2ccccc2)cc1`, 150 nM.

In turn, `CCCNC(=O)[C@H](CC(=O)O)NC(=O)[C@H]1CCCN1C(=O)CCCN=C(N)N` registered a half-inhibitory concentration (IC50) of 20000 nM. As for `NC(N)=NCCCC(=O)N1CCC[C@@H]1C(=O)NCCC(=O)O`, the figure is 1200 nM; as for `N=C(N)NCCCC(=O)N1CCC[C@@H]1C(=O)N[C@@H](CC(=O)O)C(=O)NCc1ccccc1`, 26 nM.
